From patent publication US20220257491A1, “Prebiotic Oral Care Compositions and Methods” (Colgate-Palmolive Company, priority 2021, published 2022)
Where “and” joins values, the source holds several entries; their conditions need not be identical. Equal entries are not always repeated. Marks after values point to notes of the source that are not given here.

What was measured:
Type in all cases: cell-based
[1] = tested on: S. mitis; assay: Multi-species biofilm composition: absolute abundance of S. mitis; settings: mean±SD n=3
Description: (§1) Biofilms are grown vertically on Calcium Deficient Hydroxyapatite (CAD-HA) disks (Hitemco Medical, Old Bethpage, USA) using the Amsterdam Active Adhesion model. Biofilms are allowed to establish during 24 h (37° C., 170 rpm) under micro-aerophilic conditions (6% O2, 7% CO2, 7% H2, 80% N2). After this 24 h, disks are rinsed 3 times a day for 3 minutes (RT, 250 rpm), for 3 consecutive days, by transferring the lid containing the disks to a new 24-well plate containing 2 mL/well of the appropriate substrate solution. As a negative control, PBS (pH 5.7) without substrate supplementation is used. After each rinsing step, disks are shortly dip-rinsed in a new 24-well plate containing fresh modified BHI medium (2 mL/well) to remove remaining substrate traces. Subsequently, the lid is transferred to another 24-well plate containing fresh modified BHI medium (2 mL/well), followed by incubation (micro-aerophilic, 37° C., 170 rpm) until the next rinsing step.
(§2) NADM, N-acetyl-D-glucosamine (“NADG”) and D-(+)-mannose are selected to determine their effects on multi-species biofilm composition. […] decrease in absolute numbers in at least four of the pathogenic bacterial species tested in the assay, compared to the control, the results of which are described in Table 1 below. Absolute abundances of bacterial species are shown as mean±SD (n=3) logarithmic values of the genome equivalents per millilitre (log(Geq/mL)).

[2] = tested on: P. intermedia; assay: Multi-species biofilm composition: absolute abundance of P. intermedia; settings: mean±SD n=3
Description: as §1
(§3) NADM, N-acetyl-D-glucosamine (“NADG”) and D-(+)-mannose are selected to determine their effects on multi-species biofilm composition. Repeated rinsing of the biofilms with the substrates at a concentration of 1M results in a significant decrease in absolute numbers in at least four of the pathogenic bacterial species tested in the assay, compared to the control, the results of which are described in Table 1 below. Absolute abundances of bacterial species are shown as mean±SD (n=3) logarithmic values of the genome equivalents per millilitre (log(Geq/mL)).

[3] = tested on: multi-species biofilm; assay: Relative multi-species biofilm composition (groups of bacterial species); settings: mean±SD n=3
Description: as §1, §2
Relative abundances of the different groups (beneficial/commensals, periodontal pathogens, cariogenic pathogens) of bacterial species are shown as mean±SD (n=3) percentage of the genome equivalents per millilitre (% (Geq/mL)). […] NADM: N-acetyl-D-mannosamine; NADG: N-acetyl-D-glucosamine.

[4] = tested on: V. parvula; assay: Multi-species biofilm composition: absolute abundance of V. parvula; settings: mean±SD n=3
Description: as §1, §3

[5] = tested on: P. intermedia virulence genes; assay: Multi-species biofilm virulence gene expression, SYBR RT-qPCR: P. intermedia; settings: for Fold Change in virulence gene expression: DnaJ / Fold Change in virulence gene expression: DnaK / Fold Change in virulence gene expression: ECF / Fold Change in virulence gene expression: GroES / Fold Change in virulence gene expression: HtpG / Fold Change in virulence gene expression: KpsD / Fold Change in virulence gene expression: adpc / Fold Change in virulence gene expression: clpB / Fold Change in virulence gene expression: inpA / Fold Change in virulence gene expression: phg: relative to control (=1), 2^-ΔΔCt, geometric mean n=3
Description: as §1
(§4) The expression of 33 virulence genes from 4 periodontal pathogens is analysed to evaluate the relative virulence of the substrate-treated biofilms. For all three substrates, virulence gene expression is determined relatively to the control, and these values are also compared between substrates when this is relevant (Tables 5a-5d).

[6] = tested on: S. salivarius; assay: Multi-species biofilm composition: absolute abundance of S. salivarius; settings: mean±SD n=3
Description: as §1, §3

[7] = tested on: S. sobrinus; assay: Multi-species biofilm composition: absolute abundance of S. sobrinus; settings: mean±SD n=3
Description: as §1, §2

[8] = tested on: F. nucleatum virulence genes; assay: Multi-species biofilm virulence gene expression, SYBR RT-qPCR: F. nucleatum; settings: relative to control (=1), 2^-ΔΔCt, geometric mean n=3
Description: as §1, §4

[9] = tested on: A. actinomycetemcomitans; assay: Multi-species biofilm composition: absolute abundance of A. actinomycetemcomitans; settings: mean±SD n=3
Description: as §1, §2

[10] = tested on: S. mutans; assay: Multi-species biofilm composition: absolute abundance of S. mutans; settings: for Absolute abundance S. mutans: mean±SD n=3
Description: as §1, §3

[11] = tested on: S. oralis; assay: Multi-species biofilm composition: absolute abundance of S. oralis; settings: for Absolute abundance S. oralis: mean±SD n=3
Description: as §1, §2

[12] = tested on: A. naeslundii; assay: Multi-species biofilm composition: absolute abundance of A. naeslundii; settings: mean±SD n=3
Description: as §1, §3

[13] = tested on: P. gingivalis virulence genes; assay: Multi-species biofilm virulence gene expression, SYBR RT-qPCR: P. gingivalis; settings: relative to control, 2^-ΔΔCt, geometric mean n=3
Description: as §1, §4

[14] = tested on: F. nucleatum; assay: Multi-species biofilm composition: absolute abundance of F. nucleatum; settings: mean±SD n=3
Description: as §1, §2

Structure (SMILES): CC(=O)N[C@@H]1C(O)O[C@H](CO)[C@@H](O)[C@@H]1O (stereo partly drawn) [NADM, N-acetyl-D-mannosamine]
- Absolute abundance S. mitis ([1]; substrate 1%(w/v) in PBS): < LOD
- Absolute abundance S. mitis ([1]; substrate 1 M in PBS): <LOD
- Absolute abundance Pi (P. intermedia) ([2]; substrate 1%(w/v) in PBS): 7.48 ± 0.40 log(Geq/mL)
- Absolute abundance Pi (P. intermedia) ([2]; substrate 1 M in PBS): 9.07 ± 0.06 log(Geq/mL)
- Relative abundance Beneficials/Commensals ([3]; substrate 1%(w/v) in PBS): 61.62 ± 4.88 % (Geq/mL)
- Relative abundance Cariogenic Pathogens ([3]; substrate 1%(w/v) in PBS): 0.05 ± 0.01 % (Geq/mL)
- Relative abundance Periodontal Pathogens ([3]; substrate 1%(w/v) in PBS): 38.32 ± 4.86 % (Geq/mL)
- Relative abundance Beneficial or commensals ([3]; substrate 1 M in PBS): 97.61±0.28 % (Geq/mL)
- Relative abundance Cariogenic Pathogens ([3]; substrate 1 M in PBS): 0.06 ± 0.04 % (Geq/mL)
- Relative abundance Periodontal Pathogens ([3]; substrate 1 M in PBS): 2.34±0.31 % (Geq/mL) and 2.34 ± 0.31^#2, 3 % (Geq/mL)
- Absolute abundance Vp (V. parvula) ([4]; substrate 1%(w/v) in PBS): 10.05 ± 0.17 log(Geq/mL)
- Absolute abundance Vp (V. parvula) ([4]; substrate 1 M in PBS): 10.76 ± 0.09 log(Geq/mL)
- Relative P. intermedia virulence gene expression, downregulation ([5]; substrate 1%(w/v), D-(+)-mannose for 3 genes): 2.5- to 7.7 fold
- Fold Change in virulence gene expression: DnaJ ([5]; substrate 1%): 0.19 fold
- Fold Change in virulence gene expression: DnaK ([5]; substrate 1%): 0.31 fold
- Fold Change in virulence gene expression: ECF ([5]; substrate 1%): 0.13 fold
- Fold Change in virulence gene expression: GroES ([5]; substrate 1%): 0.51 fold
- Fold Change in virulence gene expression: HtpG ([5]; substrate 1%): 0.21 fold
- Fold Change in virulence gene expression: KpsD ([5]; substrate 1%): 0.35 fold
- Fold Change in virulence gene expression: adpc ([5]; substrate 1%): 0.21 fold
- Fold Change in virulence gene expression: clpB ([5]; substrate 1%): 0.40 fold
- Fold Change in virulence gene expression: inpA ([5]; substrate 1%): 0.28 fold
- Fold Change in virulence gene expression: phg ([5]; substrate 1%): 0.26 fold
- Fold Change in virulence gene expression: DnaJ ([5]; substrate 1M): 0.15 fold
- Fold Change in virulence gene expression: DnaK ([5]; substrate 1M): 0.70 fold
- Fold Change in virulence gene expression: ECF ([5]; substrate 1M): 0.55 fold
- Fold Change in virulence gene expression: GroES ([5]; substrate 1M): 0.45 fold
- Fold Change in virulence gene expression: HtpG ([5]; substrate 1M): 0.35 fold
- Fold Change in virulence gene expression: KpsD ([5]; substrate 1M): 0.41 fold
- Fold Change in virulence gene expression: adpc ([5]; substrate 1M): 0.70 fold
- Fold Change in virulence gene expression: clpB ([5]; substrate 1M): 0.40 fold
- Fold Change in virulence gene expression: inpA ([5]; substrate 1M): 0.64 fold
- Fold Change in virulence gene expression: phg ([5]; substrate 1M): 0.15 fold
- Absolute abundance S. sal. (S. salivarius) ([6]; substrate 1%(w/v) in PBS): 2.90 ± 0.36 log(Geq/mL)
- Absolute abundance S. sal. (S. salivarius) ([6]; substrate 1 M in PBS): 3.34 ± 0.55 log(Geq/mL)
- Absolute abundance S. sobrinus ([7]; substrate 1%(w/v) in PBS): 5.24 ± 0.27 log(Geq/mL)
- Absolute abundance S. sobrinus ([7]; substrate 1 M in PBS): 6.05 ± 0.23 log(Geq/mL)
- Fold Change in virulence gene expression: ABC transp. perm. ([8]; substrate 1%): 0.39 fold
- Fold Change in virulence gene expression: EF-G ([8]; substrate 1%): 0.11 fold
- Fold Change in virulence gene expression: but.-coA transf. ([8]; substrate 1%): 0.38 fold
- Fold Change in virulence gene expression: hemin receptor ([8]; substrate 1%): 0.10 fold
- Fold Change in virulence gene expression: hemolysin ([8]; substrate 1%): 0.55 fold
- Fold Change in virulence gene expression: ompA ([8]; substrate 1%): 0.75 fold
- Fold Change in virulence gene expression: transposase ([8]; substrate 1%): 0.75 fold
- Fold Change in virulence gene expression: ABC transp. perm. ([8]; substrate 1M): 2.46 fold
- Fold Change in virulence gene expression: EF-G ([8]; substrate 1M): 1.37 fold
- Fold Change in virulence gene expression: but.-coA transf. ([8]; substrate 1M): 0.76 fold
- Fold Change in virulence gene expression: hemin receptor ([8]; substrate 1M): 2.81 fold
- Fold Change in virulence gene expression: hemolysin ([8]; substrate 1M): 1.05 fold
- Fold Change in virulence gene expression: ompA ([8]; substrate 1M): 1.27 fold
- Fold Change in virulence gene expression: transposase ([8]; substrate 1M): 1.03 fold
- Absolute abundance Aa (A. actinomycetemcomitans) ([9]; substrate 1%(w/v) in PBS): 9.51 ± 0.05 log(Geq/mL)
- Absolute abundance Aa (A. actinomycetemcomitans) ([9]; substrate 1 M in PBS): 7.84 ± 0.53 log(Geq/mL)
- Decrease in S. mutans vs control ([10]; substrate 1%(w/v)): 0.5 log(Geq/mL)
- Absolute abundance S. mutans ([10]; substrate 1%(w/v) in PBS): 7.01 ± 0.05 log(Geq/mL)
- Change in S. mutans numbers compared to the control ([10]; substrate 1 M): −1.2 log(Geq/mL)
- Absolute abundance S. mutans ([10]; substrate 1 M in PBS): 7.41 ± 0.44 log(Geq/mL)
- Absolute abundance S. oralis ([11]; substrate 1%(w/v) in PBS): 7.49 ± 0.30 log(Geq/mL)
- Change in S. oralis numbers compared to the control ([11]; substrate 1 M): +2.5 log(Geq/mL)
- Difference in S. oralis numbers compared to NADG ([11]; substrate 1 M): +1.5 log(Geq/mL)
- Absolute abundance S. oralis ([11]; substrate 1 M in PBS): 9.46 ± 0.24*^, #2 log(Geq/mL)
- Absolute abundance An (A. naeslundii) ([12]; substrate 1%(w/v) in PBS): 7.60 ± 0.22 log(Geq/mL)
- Absolute abundance An (A. naeslundii) ([12]; substrate 1 M in PBS): 6.73 ± 0.39 log(Geq/mL)
- Fold Change in virulence gene expression: fimA ([13]; substrate 1%): 1.07 fold
- Fold Change in virulence gene expression: kgp ([13]; substrate 1%): 3.46 fold
- Fold Change in virulence gene expression: partC ([13]; substrate 1%): 0.62 fold
- Fold Change in virulence gene expression: rgpA ([13]; substrate 1%): 0.88 fold
- Fold Change in virulence gene expression: fimA ([13]; substrate 1M): 0.50 fold
- Fold Change in virulence gene expression: kgp ([13]; substrate 1M): 0.82 fold
- Fold Change in virulence gene expression: partC ([13]; substrate 1M): 0.20 fold
- Fold Change in virulence gene expression: rgpA ([13]; substrate 1M): 0.43 fold
- Absolute abundance Fn (F. nucleatum) ([14]; substrate 1%(w/v) in PBS): 9.60 ± 0.22 log(Geq/mL)
- Absolute abundance Fn (F. nucleatum) ([14]; substrate 1 M in PBS): 8.14 ± 0.44 log(Geq/mL)
